Paper PMC11050952 (Marine Drugs, 2024)
pIC50: −log10 of the molar value. Several values for one entry are separate records, joined by “and”; a condition that tells them apart may be missing. Equal values may be shown once. Entries after “also recorded” stand apart in the source; their conditions may differ. Read-outs that look alike come from different tables or passages of the source.

How the values were obtained:
[1] = system: Nav currents in Neuro-2a cells (voltage-gated sodium channels, VGSCs); type: cell-based, murine
Neuro-2a cells = conditions: cited from earlier work
[2] = read-out: IC50 (inhibition of Nav currents)

**Q.** What does the source list for NC1=N[C@H](O)[C@H]2[C@H]3O[C@]4(O)O[C@@H]([C@@H](O)[C@@]2(N1)[C@@H]4O)[C@]3(O)CO [TTX, Tetrodotoxin]?
**A.** Hill Slope [1]: 0.997 ± 0.068 and 0.910 ± 0.120 and 1.167 ± 0.204 and 0.801 ± 0.149 and 1.089 ± 0.097; Reversibility of Nav current blockage [1]: could be reversed; TTX concentration giving 20% blockade (minimum detectable blockade) [1]: 0.5 ng/mL; Inhibition of Nav currents ([1]; 0.1 µM): completely inhibited; also recorded: complete inhibitions; pIC50 ([1]; read-out: IC50 (blockade of Nav currents)): 8.19; pIC50 ([1]; read-out: IC50 Value): 8.31 and 8.30 and 8.29 and 8.37 and 8.20

**Q.** With CCN(CC)CC(=O)Nc1c(C)cccc1C [Lidocaine, lidocaine] as the compound, how does the pIC50 [1, 2] read?
**A.** Its pIC50 is 3.14.

**Q.** With CCCCNc1ccc(C(=O)OCCN(C)C)cc1 [tetracaine] as the compound, how does the pIC50 [1, 2] read?
**A.** Its pIC50 is 4.65.

**Q.** For C[C@@H]1C[C@@H]2[C@@H](O)N=C(N)N[C@]23[C@H](O)C(=O)O[C@H]1[C@H]3O [5,6,11-trideoxyTTX], which “Toxicity equivalency factor (TEF)” value (Neuro-2a cells) is on record?
**A.** Its value is 0.011.
